Assay: recombinant barcode read abundance after kanamycin selection (control-corrected) (log10(CPM+1)); higher = more efficient recombination; sequences stand for … in AGTGCAGAGAAAATCGGCCAGTTTTCTCTGCCTGCAGTCCGCATGCCGT…ATTTATGCAGCGGACTGCCTTTCTCCCAAAGTGATAAACCGGACAGTATCATGGACCGGTTTTCCCGGTAATCCGTATTTGCAAGGTTGGTTTCACT; site = the 11-nt target
Procedure, shortened: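 A promoter, a target, a barcode and the first 104 bridge RNA bases under J23119 made up each oligo. Oligos were Gibson-cloned into a vector bearing the other 73 bp and a T7-inducible recombinase, then co-electroporated into E. coli with a donor plasmid and plated in duplicate on chloramphenicol/ampicillin LB agar (control) or chloramphenicol/ampicillin/kanamycin with 0.1 mM IPTG. Recombination efficiency is the averaged, control-corrected counts per million of recombinant-junction barcodes. Reported values are log10(CPM+1).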

In order of rising “recombinant barcode read abundance (log10)” value:
1. TGTATTCCTTGGGTTCTAACCTGTTGCCTTT [TGTATTCCTAG_LTGcore_CT_RTGcore_AA] (site TGTATTCCTAG) (LTG core: CT, RTG core: AA)  0.0134
2. TGTATTCGGTGGGTTCTAACCTGTTGCCTAG [TGTATTCCTAG_LTGcore_GG_RTGcore_CT] (site TGTATTCCTAG) (LTG core: GG, RTG core: CT)  0.0184
3. TGTATTCTATGGGTTCTAACCTGTTGCCTAG [TGTATTCCTAG_LTGcore_TA_RTGcore_CT] (site TGTATTCCTAG) (LTG core: TA, RTG core: CT)  0.0251
4. TGTATTCTGTGGGTTCTAACCTGTTGCCTAG [TGTATTCCTAG_LTGcore_TG_RTGcore_CT] (site TGTATTCCTAG) (LTG core: TG, RTG core: CT)  0.0339
5. TTATAAAGCTGGGTTCTAACCTGTTGCCTAG [TTATAAACTAG_LTGcore_GC_RTGcore_CT] (site TTATAAACTAG) (LTG core: GC, RTG core: CT)  0.0375
6. TGTATTCCTTGGGTTCTAACCTGTTGCCTAA [TGTATTCCTAG_LTGcore_CT_RTGcore_TT] (site TGTATTCCTAG) (LTG core: CT, RTG core: TT)  0.0404
7. TGTATTCCTTGGGTTCTAACCTGTTGCCTGG [TGTATTCCTAG_LTGcore_CT_RTGcore_CC] (site TGTATTCCTAG) (LTG core: CT, RTG core: CC)  0.0432
8. TGTATTCACTGGGTTCTAACCTGTTGCCTAG [TGTATTCCTAG_LTGcore_AC_RTGcore_CT] (site TGTATTCCTAG) (LTG core: AC, RTG core: CT)  0.0447
9. TTATAAACATGGGTTCTAACCTGTTGCCTTG [TTATAAACTAG_LTGcore_CA_RTGcore_CA] (site TTATAAACTAG) (LTG core: CA, RTG core: CA)  0.0537
10. TTATAAACTTGGGTTCTAACCTGTTGCCTTC [TTATAAACTAG_LTGcore_CT_RTGcore_GA] (site TTATAAACTAG) (LTG core: CT, RTG core: GA)  0.0607
11. TTATAAAAATGGGTTCTAACCTGTTGCCTAG [TTATAAACTAG_LTGcore_AA_RTGcore_CT] (site TTATAAACTAG) (LTG core: AA, RTG core: CT)  0.0784
12. TTATAAAGGTGGGTTCTAACCTGTTGCCTAG [TTATAAACTAG_LTGcore_GG_RTGcore_CT] (site TTATAAACTAG) (LTG core: GG, RTG core: CT)  0.0816
13. TGTATTCTTTGGGTTCTAACCTGTTGCCTAA [TGTATTCCTAG_LTGcore_TT_RTGcore_TT] (site TGTATTCCTAG) (LTG core: TT, RTG core: TT)  0.0888
14. TGTATTCGCTGGGTTCTAACCTGTTGCCTAG [TGTATTCCTAG_LTGcore_GC_RTGcore_CT] (site TGTATTCCTAG) (LTG core: GC, RTG core: CT)  0.0931
15. TTATAAATATGGGTTCTAACCTGTTGCCTAG [TTATAAACTAG_LTGcore_TA_RTGcore_CT] (site TTATAAACTAG) (LTG core: TA, RTG core: CT)  0.124
16. TGTATTCCTTGGGTTCTAACCTGTTGCCTGC [TGTATTCCTAG_LTGcore_CT_RTGcore_GC] (site TGTATTCCTAG) (LTG core: CT, RTG core: GC)  0.133
17. TTATAAACTTGGGTTCTAACCTGTTGCCTGA [TTATAAACTAG_LTGcore_CT_RTGcore_TC] (site TTATAAACTAG) (LTG core: CT, RTG core: TC)  0.137
18. TGTATTCTCTGGGTTCTAACCTGTTGCCTGA [TGTATTCCTAG_LTGcore_TC_RTGcore_TC] (site TGTATTCCTAG) (LTG core: TC, RTG core: TC)  0.141
19. TTATAAACTTGGGTTCTAACCTGTTGCCTCC [TTATAAACTAG_LTGcore_CT_RTGcore_GG] (site TTATAAACTAG) (LTG core: CT, RTG core: GG)  0.179
20. TGTATTCACTGGGTTCTAACCTGTTGCCTGT [TGTATTCCTAG_LTGcore_AC_RTGcore_AC] (site TGTATTCCTAG) (LTG core: AC, RTG core: AC)  0.251
21. TTATAAACCTGGGTTCTAACCTGTTGCCTAG [TTATAAACTAG_LTGcore_CC_RTGcore_CT] (site TTATAAACTAG) (LTG core: CC, RTG core: CT)  0.437

From the supplement of paper PMC11208160
